Data reported in the supplement of paper PMC7214452.
Structures can show the parent of a compound that is named as a salt.

What was measured:
Assay in all cases: normalized area under the dose-response curve (viability relative to DMSO control) (fraction); higher = less sensitive (more viable cells)
Settings in all cases: exposure time not given
[1] = test system: OCI-LY3 (cancer type: DLBCL)
Procedure: (§1)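 25 myeloma and 15 non-Hodgkin lymphoma cell lines were exposed to each of 76 drugs as 7-point log dilutions (0.01 nM–10 µM) in duplicate. Viability was read with CellTiter-Glo and normalised to DMSO (0.1%) and staurosporine (10 µM) plate controls. Normalised AUC was calculated by the trapezoidal method relative to the negative control.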

FR4 (cancer type: MM) = test system: FR4 (cancer type: MM)
Procedure: as §1

AMO1 (cancer type: MM) = test system: AMO1 (cancer type: MM)
Procedure: as §1

XG2 (cancer type: MM) = test system: XG2 (cancer type: MM)
Procedure: as §1

L363 (cancer type: MM) = test system: L363 (cancer type: MM)
Procedure: as §1

[2] = test system: RPMI 8226 (cancer type: MM)
Procedure: as §1

SKMM2 (cancer type: MM) = test system: SKMM2 (cancer type: MM)
Procedure: as §1

Se-Ax (cancer type: TCL) = test system: Se-Ax (cancer type: TCL)
Procedure: as §1

[3] = test system: HuT 78 (cancer type: TCL)
Procedure: as §1

KMS34 (cancer type: MM) = test system: KMS34 (cancer type: MM)
Procedure: as §1

[4] = test system: JVM2 (cancer type: Mantle)
Procedure: as §1

[5] = test system: KMS28PE (cancer type: MM)
Procedure: as §1

[6] = test system: NCI-H929 (cancer type: MM)
Procedure: as §1

[7] = test system: OCI-MY5 (cancer type: MM)
Procedure: as §1

KMS11 (cancer type: MM) = test system: KMS11 (cancer type: MM)
Procedure: as §1

LP1 (cancer type: MM) = test system: LP1 (cancer type: MM)
Procedure: as §1

U266 (cancer type: MM) = test system: U266 (cancer type: MM)
Procedure: as §1

MM1.R (cancer type: MM) = test system: MM1.R (cancer type: MM)
Procedure: as §1

[8] = test system: SU-DHL2 (cancer type: DLBCL)
Procedure: as §1

My-La (cancer type: TCL) = test system: My-La (cancer type: TCL)
Procedure: as §1

[9] = test system: Karpas-299 (cancer type: TCL)
Procedure: as §1

[10] = test system: OCI-LY19 (cancer type: DLBCL)
Procedure: as §1

KMS26 (cancer type: MM) = test system: KMS26 (cancer type: MM)
Procedure: as §1

[11] = test system: OCI-LY1 (cancer type: DLBCL)
Procedure: as §1

[12] = test system: OCI-MY5/Vec (cancer type: MM)
Procedure: as §1

[13] = test system: KMS12PE (cancer type: MM)
Procedure: as §1

JJN3 (cancer type: MM) = test system: JJN3 (cancer type: MM)
Procedure: as §1

EJM (cancer type: MM) = test system: EJM (cancer type: MM)
Procedure: as §1

[14] = test system: KMS28BM (cancer type: MM)
Procedure: as §1

[15] = test system: SU-DHL6 (cancer type: DLBCL)
Procedure: as §1

[16] = test system: OCI-MY7 (cancer type: MM)
Procedure: as §1

[17] = test system: Mino (cancer type: Mantle)
Procedure: as §1

[18] = test system: Granta-519 (cancer type: Mantle)
Procedure: as §1

MM1.S (cancer type: MM) = test system: MM1.S (cancer type: MM)
Procedure: as §1

[19] = test system: SR-786 (cancer type: TCL)
Procedure: as §1

[20] = test system: SU-DHL1 (cancer type: TCL)
Procedure: as §1

[21] = test system: OCI-MY5/CRBN (cancer type: MM)
Procedure: as §1

[22] = test system: JeKo-1 (cancer type: Mantle)
Procedure: as §1

KMS18 (cancer type: MM) = test system: KMS18 (cancer type: MM)
Procedure: as §1

OPM2 (cancer type: MM) = test system: OPM2 (cancer type: MM)
Procedure: as §1

SMILES	normalized area under the dose-response curve [1]	normalized area under the dose-response curve (FR4 (cancer type: MM))	normalized area under the dose-response curve (AMO1 (cancer type: MM))	normalized area under the dose-response curve (XG2 (cancer type: MM))	normalized area under the dose-response curve (L363 (cancer type: MM))	normalized area under the dose-response curve [2]	normalized area under the dose-response curve (SKMM2 (cancer type: MM))	normalized area under the dose-response curve (Se-Ax (cancer type: TCL))	normalized area under the dose-response curve [3]	normalized area under the dose-response curve (KMS34 (cancer type: MM))	normalized area under the dose-response curve [4]	normalized area under the dose-response curve [5]	normalized area under the dose-response curve [6]	normalized area under the dose-response curve [7]	normalized area under the dose-response curve (KMS11 (cancer type: MM))	normalized area under the dose-response curve (LP1 (cancer type: MM))	normalized area under the dose-response curve (U266 (cancer type: MM))	normalized area under the dose-response curve (MM1.R (cancer type: MM))	normalized area under the dose-response curve [8]	normalized area under the dose-response curve (My-La (cancer type: TCL))	normalized area under the dose-response curve [9]	normalized area under the dose-response curve [10]	normalized area under the dose-response curve (KMS26 (cancer type: MM))	normalized area under the dose-response curve [11]	normalized area under the dose-response curve [12]	normalized area under the dose-response curve [13]	normalized area under the dose-response curve (JJN3 (cancer type: MM))	normalized area under the dose-response curve (EJM (cancer type: MM))	normalized area under the dose-response curve [14]	normalized area under the dose-response curve [15]	normalized area under the dose-response curve [16]	normalized area under the dose-response curve [17]	normalized area under the dose-response curve [18]	normalized area under the dose-response curve (MM1.S (cancer type: MM))	normalized area under the dose-response curve [19]	normalized area under the dose-response curve [20]	normalized area under the dose-response curve [21]	normalized area under the dose-response curve [22]	normalized area under the dose-response curve (KMS18 (cancer type: MM))	normalized area under the dose-response curve (OPM2 (cancer type: MM))
O=C(/C=C/c1cccc(S(=O)(=O)Nc2ccccc2)c1)NO [Belinostat]	0.343	0.428	0.301	0.473	0.473	0.564	0.712	0.215	0.178	0.274	0.385	0.384	0.1	0.201	0.445	0.628	0.394	0.36	0.4	0.506	0.0712	0.38	0.366	0.223	0.25	0.4	0.53	0.247	0.416	0.582	0.44	0.249	0.531	0.21	0.215	0.218	0.262	0.229	0.553	0.674
Cn1c(CCCC(=O)O)nc2cc(N(CCCl)CCCl)ccc21 [Bendamustine hydrochloride]	0.784	0.955	0.849	0.875	0.84	0.879	0.955	0.719	0.779	0.755	0.684	0.847	0.75	0.835	0.849	0.946	0.92	0.67	0.795	0.862	0.831	0.834	0.677	0.832	0.921	0.74	0.938	0.815	0.869	0.911	0.74	0.86	0.885	0.68	0.74	0.794	0.932	0.87	0.832	0.842
O=C1CC[C@H](N2Cc3c(OCc4ccc(CN5CCOCC5)cc4)cccc3C2=O)C(=O)N1 [Iberdomide]	0.983	–	–	–	–	–	–	0.953	0.913	–	0.917	–	0.86	–	–	–	–	0.91	0.921	–	–	0.809	–	0.968	0.947	0.93	–	–	–	0.887	0.94	–	–	0.78	–	0.996	0.913	–	–	–
CC(C)C[C@H](NC(=O)CNC(=O)c1cc(Cl)ccc1Cl)B(O)O [Ixazomib]	0.285	–	–	0.0819	–	–	–	0.146	0.156	0.306	0.114	–	0.1	–	–	0.344	–	0.05	0.453	0.355	0.403	0.303	0.157	0.362	0.027	0.45	–	–	–	0.855	0.12	0.14	0.129	0.09	0.355	0.186	0.0319	0.104	–	–
Cc1[nH]c(/C=C2\C(=O)Nc3ccc(F)cc32)c(C)c1C(=O)NCCN1CCCC1 [Toceranib]	0.902	–	–	0.723	–	–	–	0.728	0.756	0.667	0.702	–	0.88	–	–	0.796	–	0.83	0.959	0.993	0.757	0.894	0.906	1.06	0.967	0.79	–	–	–	0.894	0.86	0.898	0.898	0.82	0.818	0.561	0.884	0.831	–	–
